A word on the EC50: it is the concentration at which the effect is half-maximal. Usually Papp A→B stands for how fast a substance crosses the layer from the apical side. For orientation: bioavailability means the share of a dose that reaches the circulation, judged against a reference dose that is usually intravenous.

Bounds are passed on as bounds.

For series [1], the target named is Recombinant AMPK α1/β1/γ1 complex (Homo sapiens (Human), UniProt Q13131+Q9Y478). Put plainly: In vitro pAMPK1 kinase activation assay (ADP-Glo, SAMS peptide). The class given is biochemical. The following applies: for EC50: AMPK α1/β1/γ1 pre-activated with CAMKK2, 12-point curve; for activation at 10 µM: relative to reference compound MK-8722. On the procedure:
Compound effect on AMPK enzyme activation was determined in a cell-free format with a 12-point concentration curve. The ADP-Glo detection system was used to determine phosphorylation of a SAMS peptide substrate. Recombinant AMPK α1/β1/γ1 complex was pre-activated by phosphorylation with CAMKK2 followed by incubated with compound for 15 minutes prior to the SAMS phosphorylation reaction. Activity curves and EC50 values were fitted by interpolation to an ATP:ADP standard curve as indicated by the ADP-Glo manufacturer using Prism software. Activity at 10 μM is reported relative to a reference compound, MK-8722 (Science 2017, 357(6350):507-511).

For the next series, the target named is BCRP (Homo sapiens (Human), UniProt Q9UNQ0). The series is described as follows: in vitro. The format is in vitro ADME. As to the method:
Caco-2 cells purchased from ATCC were seeded onto […] (PET) in 96-well BD Insert plates at 1×10^5 cells/cm^2, and refreshed medium every 4-5 days until to the 21st to 28th day for confluent cell monolayer formation. The transport buffer in the study was HBSS with 10 mM HEPES at pH 7.40±0.05. Compounds were tested at 2 μM in the presence or absence of 30 μM novobiocin bi-directionally in duplicate. E3S was tested at 5 μM in the presence or absence of 30 μM novobiocin bi-directionally in duplicate, while nadolol and metoprolol were tested at 2 μM in the absence of novobiocin in A to B direction in duplicate. Final DMSO concentration was adjusted to less than 1%. The plate was incubated for 2 hours in CO2 incubator at 37+1° C., with 5% CO2 at saturated humidity without shaking. All samples were mixed with acetonitrile containing internal standard and were centrifuged at 4000 rpm for 10 min. Subsequently, 100 μL supernatant solution was diluted with 100 μL distilled water for LC/MS/MS analysis. Concentrations of test and control compounds in starting solution, donor solution, and receiver solution were quantified by LC/MS/MS, using peak area ratio of analyte/internal standard.

Series [2] is described as follows: Pharmacokinetics (oral bioavailability, IV parameters). The following applies: mouse, in vivo; C57BL/6 mice, IV 1 mg/kg, PO 30 mg/kg. As to the method:
Compounds were tested for pharmacokinetics in C57BL/6 mice. Compounds 2, 4, and A1 were dosed IV at 1 mg/kg as a formulation of 0.5 mg/mL in 5% DMSO+30% PEG400+65% water and PO at 30 mg/kg as a formulation of 6 mg/mL in 0.25% MC+5% Tween 80+0.02% SDS. Compound 1 was dosed IV at 1 mg/kg as a formulation of 0.50 mg/mL in 5% DMSO+30% PEG400+65% water and PO at 30 mg/kg as a formulation of 6 mg/mL in 0.5% MC+0.5% Tween 80.

The test system of series [3] is Mouse In Vivo Chemotherapy-Induced Intestinal Injury Model. Put plainly: Diarrhea in chemotherapy (5FU)-induced intestinal injury model. Also noted: species or system BALB/c mice. The following applies: 30 mg/kg BID. On the procedure: Compounds were formulated in vehicle (0.25% methyl cellulose, 5% Tween 80, 0.02% sodium dodecyl sulfate (SDS) in Hanks' Buffered Salt Solution with Ca2+ and Mg2+). On day 1, either saline or a 400 mg/kg dose of 5-fluorouracil (5FU) in saline was administered by intraperitoneal injection to BALB/c mice. Starting on day 2, vehicle or compound was administered once or twice a day by oral gavage. In some instances, compound was also administered once or twice a day by oral gavage from day −3 to day −1 (pre-5FU). From days 5 to 6 post-5FU, the animals were scored for diarrhea severity once a day. The diarrhea was scored 0-3 as follows: 0—normal consistency (black and solid), 1—soft (black and a bit lighter/yellow), 2—loosely shaped stool (yellowish and somewhat watery), 3—extreme diarrhea (very watery). Day 5 and day 6 diarrhea scores following administration of certain compounds were lower than vehicle control mice. […] In addition, Compound 1 was efficacious at doses as low as 3 mg/kg BID (6 mg/kg total daily dose).

For series [4], the system named is Acetyl CoA Carboxylase (ACC) Phosphorylation in Mouse Muscle. Put plainly: Level of ACC phosphorylation in mouse muscle. The format is in vivo, C57BL/6J mice. On the procedure:
Systemic AMPK target engagement in vivo can be assessed by measuring the site-specific phosphorylation of a direct AMPK substrate, acetyl-coenzyme A carboxylase (ACC), in a well perfused tissue such as muscle.
Compounds were formulated in vehicle (0.25% methyl cellulose, 5% Tween 80, 0.02% sodium dodecyl sulfate (SDS) in Hanks' Buffered Salt Solution with Ca^2+ and Mg^2+). Male C57BL/6J mice were administered vehicle or compound once daily for 5 days. On the final day of dosing (day 1 for acute assessment, day 5 for sub-chronic assessment), mice were euthanized by cervical dislocation five hours post dose and samples of skeletal muscle (gastrocnemius) were removed and snap frozen in liquid nitrogen.
Frozen muscle tissues were homogenized. Homogenates were analyzed for protein concentration and equal amounts of protein were assayed for total and phosphorylated ACC (p-ACC) levels using Meso Scale Discovery's Multi-array assay kit. The ratio of p-ACC/total ACC was determined for each sample.

Chain of BCRP (Q9UNQ0 whole entry): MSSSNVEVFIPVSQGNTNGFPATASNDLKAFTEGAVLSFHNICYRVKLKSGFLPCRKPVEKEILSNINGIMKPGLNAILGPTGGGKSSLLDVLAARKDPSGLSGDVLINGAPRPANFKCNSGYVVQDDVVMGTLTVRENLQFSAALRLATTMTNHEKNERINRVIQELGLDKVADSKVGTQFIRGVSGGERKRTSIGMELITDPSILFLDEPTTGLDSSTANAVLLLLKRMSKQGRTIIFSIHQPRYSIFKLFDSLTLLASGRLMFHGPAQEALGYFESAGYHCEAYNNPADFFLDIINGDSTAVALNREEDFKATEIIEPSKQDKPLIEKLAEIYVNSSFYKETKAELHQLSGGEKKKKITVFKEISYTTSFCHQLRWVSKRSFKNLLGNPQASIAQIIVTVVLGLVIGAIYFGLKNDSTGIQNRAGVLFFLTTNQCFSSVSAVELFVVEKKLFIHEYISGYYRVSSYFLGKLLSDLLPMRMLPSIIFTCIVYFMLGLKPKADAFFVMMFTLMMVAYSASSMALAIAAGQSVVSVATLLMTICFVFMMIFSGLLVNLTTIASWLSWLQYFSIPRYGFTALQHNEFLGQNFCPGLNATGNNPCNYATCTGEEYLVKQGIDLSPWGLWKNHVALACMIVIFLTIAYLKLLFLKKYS
Chain of Recombinant AMPK α1/β1/γ1 complex (Q13131 whole entry): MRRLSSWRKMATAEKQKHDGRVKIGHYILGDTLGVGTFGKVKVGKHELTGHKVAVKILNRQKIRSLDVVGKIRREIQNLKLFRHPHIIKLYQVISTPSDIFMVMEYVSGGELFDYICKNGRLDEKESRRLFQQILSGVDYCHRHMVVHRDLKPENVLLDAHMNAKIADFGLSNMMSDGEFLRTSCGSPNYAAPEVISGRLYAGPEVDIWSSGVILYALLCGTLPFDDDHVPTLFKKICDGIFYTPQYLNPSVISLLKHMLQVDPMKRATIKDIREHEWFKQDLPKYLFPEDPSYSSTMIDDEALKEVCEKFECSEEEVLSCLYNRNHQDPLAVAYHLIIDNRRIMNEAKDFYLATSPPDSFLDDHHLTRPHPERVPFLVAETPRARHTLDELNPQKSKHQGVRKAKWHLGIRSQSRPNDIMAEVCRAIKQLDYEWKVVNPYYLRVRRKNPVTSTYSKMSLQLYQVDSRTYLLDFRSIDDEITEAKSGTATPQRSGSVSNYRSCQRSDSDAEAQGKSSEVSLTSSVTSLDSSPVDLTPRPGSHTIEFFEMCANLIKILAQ
Chain of Recombinant AMPK α1/β1/γ1 complex (Q9Y478 whole entry): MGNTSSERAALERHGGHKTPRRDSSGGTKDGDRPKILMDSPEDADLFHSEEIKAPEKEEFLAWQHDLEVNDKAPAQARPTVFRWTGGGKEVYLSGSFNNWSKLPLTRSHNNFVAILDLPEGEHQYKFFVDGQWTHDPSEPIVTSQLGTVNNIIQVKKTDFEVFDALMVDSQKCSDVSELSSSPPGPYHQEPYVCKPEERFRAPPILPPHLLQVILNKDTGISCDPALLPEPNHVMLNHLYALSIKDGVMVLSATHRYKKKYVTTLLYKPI
Chain of Recombinant AMPK α1/β1/γ1 complex (P54619 whole entry partner): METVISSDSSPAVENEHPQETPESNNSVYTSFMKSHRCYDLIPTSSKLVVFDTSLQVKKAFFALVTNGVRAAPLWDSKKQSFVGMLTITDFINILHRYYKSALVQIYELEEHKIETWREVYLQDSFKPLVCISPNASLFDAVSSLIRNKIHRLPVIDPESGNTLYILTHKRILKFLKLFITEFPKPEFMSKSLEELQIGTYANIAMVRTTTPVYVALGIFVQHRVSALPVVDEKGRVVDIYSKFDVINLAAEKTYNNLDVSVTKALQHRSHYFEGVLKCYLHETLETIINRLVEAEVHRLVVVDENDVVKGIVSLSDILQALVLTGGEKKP

For `O=C(O)CSc1nc2nc(-c3ccc(-c4ccc(-n5cncn5)cc4O)cc3)c(Cl)cc2[nH]1` [Compound 9, 2-((6-chloro-5-(2′-hydroxy-4′-(1H-1,2,4-triazol-1-yl)-[1,1′-biphenyl]-4-yl)-1H-imidazo[4,5-b]pyridin-2-yl)thio)acetic Acid], in series [1], the EC50 turned out to be 1.1 nM and the activation at 10 µM was found to be 51%.

Consider `O=C(O)CSc1nc2nc(-c3ccc(-c4ccc(-n5cncn5)cc4)cc3)c(Cl)cc2[nH]1` [Compound 8, 2-((5-(4′-(1H-1,2,4-triazol-1-yl)-[1,1′-biphenyl]-4-yl)-6-chloro-1H-imidazo[4,5-b]pyridin-2-yl)thio)acetic Acid], for which, in series [1], the 50% effective concentration (EC50) turned out to be 20 nM and the activation at 10 µM was determined as 39%.

Consider `O=C(O)CSc1nc2nc(-c3ccc(N4CC[C@H](O)C4)cc3)c(Cl)cc2[nH]1` [Compound 7, (S)-2-((6-chloro-5-(4-(3-hydroxypyrrolidin-1-yl)phenyl)-1H-imidazo[4,5-b]pyridin-2-yl)thio)acetic Acid], for which, in series [1], the concentration giving a half-maximal response (EC50) came to 43 nM and the activation at 10 µM worked out at 42%.

`COCCc1ccc(OCC(O)CNC(C)C)cc1` (stereo not drawn) [metoprolol, reference compound]: the Papp A→B at 2 h, 2 μM on BCRP (human, Caco-2, pH 7.4, Mean Papp (10^−6 cm/s) A to B) was found to be 14.7 ×10⁻⁶ cm/s. Also, on BCRP (human, Caco-2, pH 7.4, Mean Recovery (%) A to B), the recovery at 2 h, 2 μM came to 95.4%.

Take `CC(C)(C)CCc1ccc(-c2ccc(-c3nc4nc(SCC(=O)O)[nH]c4cc3Cl)cc2)c(O)c1` [Compound 6, 2-((6-chloro-5-(4′-(3,3-dimethylbutyl)-2′-hydroxy-[1,1′-biphenyl]-4-yl)-1H-imidazo[4,5-b]pyridin-2-yl)thio)acetic Acid]: in series [1], the half-maximal effective concentration (EC50) is 1120 nM and the activation at 10 µM stood at 18%.

Take `O=P(O)(O)CSc1nc2nc(-c3ccc(-c4ccccc4O)cc3)c(Cl)cc2[nH]1` [Compound 4, (((6-chloro-5-(2′-hydroxy-[1,1′-biphenyl]-4-yl)-1H-imidazo[4,5-b]pyridin-2-yl)thio)methyl)phosphonic Acid]: in series [1], the half-maximal effective concentration (EC50) came out at 0.55 nM. In addition, in series [1], the activation at 10 µM worked out at 28%. The bioavailability in series [2] is under 1%. In addition, the entries for the “Diarrhea Score % Change vs. Vehicle” value in series [3] (Day 5) and in series [3] (Day 6) were −58% and −65%, respectively. Moreover, the “Diarrhea Score” value in series [3] (Day 5, score 0-3) worked out at 0.37; in series [3] (Day 6, score 0-3) it was 0.63.

`CC(C)(C)NCC(O)COc1cccc2c1CC(O)C(O)C2` (stereo not drawn) [nadolol, reference compound]: at BCRP (Caco-2), the “Mean Papp (10^−6 cm/s) A to B” value is reported as 0.11 10^−6 cm/s and the “Mean Recovery (%) A to B” value came to 99.73%.

As for `O[C@@H]1CO[C@H]2[C@@H]1OC[C@H]2Oc1nc2cc(Cl)c(-c3ccc(-c4ccccc4)cc3)cc2[nH]1` [MK-8722, reference compound], in series [4] (30 mg/kg once daily for 5 days, five hours post dose, gastrocnemius), the “% p-ACC/ACC ratio change vs. Vehicle, Sub-chronic (5 days)” value turned out to be 259.0%. Moreover, the “% p-ACC/ACC ratio change vs. Vehicle, Acute (5 hr)” value in series [4] (30 mg/kg, day 1, five hours post dose, gastrocnemius) stood at 275.7%. In series [4] (30 mg/kg, one-way ANOVA vs vehicle (Dunnett's post-test)), the “ratio of pACC/total ACC compared with vehicle control mice” value is “significantly higher”.

Consider `C[C@]12CC[C@@H]3c4ccc(OS(=O)(=O)O)cc4CC[C@H]3[C@@H]1CCC2=O` [Compound E3S, reference compound], for which, at BCRP (Caco-2), the “Efflux Ratio” value is recorded as 36.79, the “Mean Recovery (%) A to B” value worked out at 76.60% and the “Mean Recovery (%) B to A” value was 98.34%.

As for `CCOP(=O)(O)CSc1nc2nc(-c3ccc(-c4ccccc4O)cc3)c(Cl)cc2[nH]1` [Compound 3, ethyl hydrogen (((6-chloro-5-(2′-hydroxy-[1,1′-biphenyl]-4-yl)-1H-imidazo[4,5-b]pyridin-2-yl)thio)methyl)phosphonate], in series [1], the concentration giving a half-maximal response (EC50) was determined as 2.38 nM and the activation at 10 µM came out at 49%.

On to `CP(=O)(O)CSc1nc2nc(-c3ccc(-c4ccccc4O)cc3)c(Cl)cc2[nH]1` [Compound 2, (((6-chloro-5-(2′-hydroxy-[1,1′-biphenyl]-4-yl)-1H-imidazo[4,5-b]pyridin-2-yl)thio)methyl)(methyl)phosphinic Acid], for which, in series [1], the half-maximal effective concentration (EC50) stood at 0.97 nM and the activation at 10 µM amounted to 47%. For the same compound, in series [2], the bioavailability was under 1%.

The values above are taken from patent US11279702B2, “AMPK activators” (Kallyope, Inc., priority 2020, dated 2022).
